Results reported in patent publication US20250332112A1, “IONIZABLE CATIONIC LIPIDS FOR LIPID NANOPARTICLES” (GENEVANT SCIENCES GMBH, priority 2022, published 2025).
Values belong to the compound of their own block, whether it stands above or below them.

Tests used:
[1] = Particle characteristics of LNPs containing luciferase mRNA and novel ionizable lipids; format: physicochemical
Method: The lipid solution contains 4 components: a PEG-conjugated lipid, an ionizable lipid, cholesterol, and a phospholipid (e.g., DSPC). Lipid stocks were prepared using the lipid identities and molar ratios as described, to achieve a total concentration of ˜7 mg/mL in 100% ethanol. Firefly luciferase mRNA (TriLink Biotechnologies, L-7202) or ornithine transcarbamylase (OTC) mRNA (TriLink Biotechnologies, custom designed) was diluted in acetate, pH 5 buffer and nuclease free water to achieve a target concentration of 0.366 mg/mL mRNA in 100 mM acetate, pH 5. Equal volumes of the lipid and nucleic acid solutions were blended at a flow rate of 400 mL/min through a T-connector, and diluted with ˜4 volumes of PBS, pH 7.4. Formulations were placed in Slide-A-Lyzer dialysis units (MWCO 10,000) and dialyzed overnight against 10 mM Tris, 500 mM NaCl, pH 8 buffer. Following dialysis, the formulations were concentrated to ˜0.6 mg/mL using VivaSpin concentrator units (MWCO 100,000) and dialyzed overnight against 5 mM Tris, 10% sucrose, pH 8 buffer. Formulations were filtered through a 0.2 μm syringe filter (PES membrane). Nucleic acid concentration was determined by the RiboGreen assay. Particle size and polydispersity were determined using a Malvern Nano Series Zetasizer.
LNP formulations containing novel ionizable lipids all produced stable particles with high encapsulation efficiency (Tables 1-7).

[2] = test system: luciferase activity in the liver; assay: Luciferase activity in liver after intravenous luciferase mRNA LNP; format: in vivo; details: 0.5 mg/kg IV, 6 h post-IV administration, BALB/c mice (n = 4)
Method: Frozen aliquots of liver were thawed and homogenized in 1 mL of 1×CCLR (Cell Culture Lysis Reagent) using a FastPrep® homogenizer. The homogenate was then centrifuged at 16,000 RPM for 10 minutes at 4° C. Twenty (20) μL of the supernatant was loaded into a 96-well white plate and luminescence measured following addition of luciferase reagent (Promega Luciferase Assay System). Luciferase activity was determined by comparing luminescence of the homogenized samples to luciferase protein standards. To account for any quenching of luminescence by components in the liver homogenate, luciferase was added to the liver homogenates of untreated animals and the resulting luminescence measured. The resulting quench factor was applied to all samples to obtain the corrected luciferase activity, and normalized per unit mass of tissue analyzed.

[3] = Table 5, luciferase mRNA LNP 1.6:54.6:32.8:10.9
[4] = Table 2, luciferase mRNA LNP 1.6:54.6:32.8:10.9
[5] = Table 4, luciferase mRNA LNP 1.6:54.6:32.8:10.9
[6] = Table 1, luciferase mRNA LNP 1.6:54.6:32.8:10.9

Final Product % EE [1, 3]: 99% | Final Product PDI [1, 3]: 0.04 | Final Product Z-avg [1, 3]: 77 nm
Structure (SMILES): CCCCCCCCCCC(CCCCCCC(=O)OCC(CCCCCC)CCCCCCCC)N(CCCCCCCCCC)C(=O)CCCN(C)C (stereo not drawn) [Compound 1, 2-Hexyldecyl 8-(N-decyl-4-(dimethylamino)butanamido)-octadecanoate]
Luc Activity ([2]; Table 12): 1.70E+08 pg/g liver

Final Product % EE [1, 3]: 96% | Final Product PDI [1, 3]: 0.08 | Final Product Z-avg [1, 3]: 81 nm
Structure (SMILES): CCCCCCCCCCC(CCCCC(=O)OCC(CCCCCC)CCCCCCCC)N(CCCCCCCCCC)C(=O)CCCN(C)C (stereo not drawn) [Compound 2, 2-Hexyldecyl 6-(N-decyl-4-(dimethylamino)butanamido)hexadecanoate]
Luc Activity ([2]; Table 12): 7.11E+07 pg/g liver

Final Product % EE [1, 4]: 98% | Final Product PDI [1, 4]: (0.03) | Final Product Z-avg [1, 4]: 77 nm
Structure (SMILES): CCCCCCCCCC(CC(=O)OCC(CCCCCC)CCCCCCCC)N(CCCN(C)C)C(=O)CCCCC(=O)OCC(CCCC)CCCCCC (stereo not drawn) [Compound 21, 2-hexyldecyl 3-{6-[(2-butyloctyl)oxy]-N-[3-(dimethylamino)propyl]-6-oxohexanamido}dodecanoate]
Luc Activity ([2]; Table 9): 4.58E+07 pg/g liver

Final Product % EE [1, 4]: 98% | Final Product PDI [1, 4]: (0.04) | Final Product Z-avg [1, 4]: 74 nm
Structure (SMILES): CCCCCCCCCC(CC(=O)OCC(CCCCCC)CCCCCCCC)N(CCCN(C)C)C(=O)CCCCCCC(=O)OCC(CCCC)CCCCCC (stereo not drawn) [Compound 22, 2-Hexyldecyl 3-(8-((2-butyloctyl)oxy)-N-(3-(dimethylamino)propyl)-8-oxooctanamido)-dodecanoate]
Luc Activity ([2]; Table 9): 4.71E+07 pg/g liver

Final Product % EE [1, 4]: 99% | Final Product PDI [1, 4]: (0.03) | Final Product Z-avg [1, 4]: 78 nm
Structure (SMILES): CCCCCCCCCCC(CCCC(=O)OCC(CCCCCC)CCCCCCCC)N(CCCN(C)C)C(=O)CCCCCCC(=O)OCC(CCCC)CCCCCC (stereo not drawn) [Compound 25, 2-Hexyldecyl 5-(8-((2-butyloctyl)oxy)-N-(3-(dimethylamino)propyl)-8-oxooctanamido)-pentadecanoate]
Luc Activity ([2]; Table 9): 7.76E+06 pg/g liver

Final Product % EE [1, 5]: 98% | Final Product PDI [1, 5]: 0.04 | Final Product Z-avg [1, 5]: 86 nm
Structure (SMILES): CCCCCCCCCCC(CCCCCC(=O)OCCCCC(CCCCCCCC)CCCCCCCC)N(CCCN(C)C)C(=O)CCCCCCC(=O)OC(CC)CCCCCCCC (stereo not drawn) [Compound 27, 5-Octyltridecyl 7-(N-(3-(dimethylamino)propyl)-8-oxo-8-(undecan-3-yloxy)octanamido)-heptadecanoate]
Luc Activity ([2]; Table 11): 9.17E+06 pg/g liver

Final Product % EE [1, 5]: 95% | Final Product PDI [1, 5]: 0.20 | Final Product Z-avg [1, 5]: 90 nm
Structure (SMILES): CCCCCCCCCCC(CCCCCC(=O)OCCCCC(CCCCCCCC)CCCCCCCC)N(CCN(C)C)C(=O)CCCCCCC(=O)OC(CC)CCCCCCCC (stereo not drawn) [Compound 28, 5-Octyltridecyl 7-(N-(2-(dimethylamino)ethyl)-8-oxo-8-(undecan-3-yloxy)octanamido)-heptadecanoate]
Luc Activity ([2]; Table 11): 6.50E+06 pg/g liver

Final Product % EE [1, 3]: 98% | Final Product PDI [1, 3]: 0.02 | Final Product Z-avg [1, 3]: 80 nm
Structure (SMILES): CCCCCCCCCCC(CCCCCC(=O)OCC(CCCCCC)CCCCCCCC)N(CCCN(C)C)C(=O)CCCCCCC(=O)OCC(CCCC)CCCCCC (stereo not drawn) [Compound 29, 2-Hexyldecyl 7-(8-((2-butyloctyl)oxy)-N-(3-(dimethylamino)propyl)-8-oxooctanamido)-heptadecanoate]
Luc Activity ([2]; Table 12): 6.74E+07 pg/g liver

Structure (SMILES): CCCCCCCCCCC(CCCCCCC(=O)OCCC(CCCCC)CCCCC)N(CCCN(C)C)C(=O)CCCCCCC(=O)OCCC(CCCCC)CCCCC (stereo not drawn) [Compound 30]
Luc Activity ([2]; Table 12): 3.76E+07 pg/g liver

Structure (SMILES): CCCCCCCCCCC(CCCCCCC(=O)OC(CCCCCCCC)CCCCCCCC)N(CCCN(C)C)C(=O)CCCCCCC(=O)OCCC(CCCCC)CCCCC (stereo not drawn) [Compound 31]
Luc Activity ([2]; Table 12): 1.47E+07 pg/g liver

Structure (SMILES): CCCCC/C=C\CCCC(CCC/C=C\CCCCC)CN(C(=O)CCCCN(C)C)C(CCCCCCCCCC)CCCCCCC(=O)OCCCCCCCCCC (stereo not drawn) [Compound 35]
Luc Activity ([2]; Table 11): 1.40E+07 pg/g liver

Structure (SMILES): CCCCC/C=C\CCCC(CCC/C=C\CCCCC)CN(C(=O)CCCN(C)C)C(CCCCCCCCCC)CCCCCCC(=O)OCCCCCCCCCC (stereo not drawn) [Compound 36]
Luc Activity ([2]; Table 11): 5.54E+06 pg/g liver

Structure (SMILES): CCCCC/C=C\CCCC(CCC/C=C\CCCCC)CN(C(=O)CCN(C)C)C(CCCCCCCCCC)CCCCCCC(=O)OCCCCCCCCCC (stereo not drawn) [Compound 37]
Luc Activity ([2]; Table 11): 3.01E+06 pg/g liver

Final Product % EE [1, 4]: 98% | Final Product PDI [1, 4]: (0.05) | Final Product Z-avg [1, 4]: 87 nm
Structure (SMILES): CCCCCCCCCC(=O)N(CCCN(C)C)C(CCCCCCCCC)CCOC(=O)C(F)(CCCCCC)CCCCCCCC (stereo not drawn) [Compound 40, 3-{N-[3-(dimethylamino)propyl]decanamido}dodecyl 2-fluoro-2-hexyldecanoate]
Luc Activity ([2]; Table 9): 3.57E+07 pg/g liver

Final Product % EE [1, 3]: 94% | Final Product PDI [1, 3]: 0.04 | Final Product Z-avg [1, 3]: 70 nm
Structure (SMILES): CCCCCCCCCCC(CCCCCCC(=O)OCC(CCCCCC)CCCCCCCC)N(OCCCN(C)C)C(=O)CCCCCCC(=O)OCC(CCCC)CCCCCC (stereo not drawn) [Compound 41, 2-hexyldecyl 8-{8-[(2-butyloctyl)oxy]-N-[3-(dimethylamino)propoxy]-8-oxooctanamido}octadecanoate]
Luc Activity ([2]; Table 12): 6.69E+06 pg/g liver

Final Product % EE [1, 3]: 97% | Final Product PDI [1, 3]: 0.10 | Final Product Z-avg [1, 3]: 65 nm
Structure (SMILES): CCCCCCCCCCC(CCCCCC(=O)OCC(CCCCCC)CCCCCCCC)N(OCCCN(C)C)C(=O)CCCCCCCCC (stereo not drawn) [Compound 42, 2-hexyldecyl 7-{N-[3-(dimethylamino)propoxy]decanamido}heptadecanoate]
Luc Activity ([2]; Table 12): 1.14E+07 pg/g liver

Final Product % EE [1, 3]: 98% | Final Product PDI [1, 3]: 0.06 | Final Product Z-avg [1, 3]: 68 nm
Structure (SMILES): CCCCCCCCCCON(C(=O)CCCN(C)C)C(CCCCCCCCCC)CCCCCC(=O)OCC(CCCCCC)CCCCCCCC (stereo not drawn) [Compound 44, 2-Hexyldecyl 7-(N-(decyloxy)-4-(dimethylamino)butanamido)heptadecanoate]
Luc Activity ([2]; Table 12): 6.17E+07 pg/g liver

Final Product % EE [1, 6]: 96% | Final Product PDI [1, 6]: 0.04 | Final Product Z-avg ([1]; Table 1, luciferase mRNA LNP 1.6:54.6:32.8:10.9 PEG2000-C-DMA:Ionizable lipid:Cholesterol:DSPC): 71 nm
Structure (SMILES): CCCCCCCCCC(CC(=O)OCC(CCCCCC)CCCCCCCC)N(CCCN(C)C)S(=O)(=O)CCCCCCCC (stereo not drawn) [Compound 48, 2-hexyldecyl 3-{N-[3-(dimethylamino)propyl]octane-1-sulfonamido}dodecanoate]
Luc Activity ([2]; Table 8): 6.49E+06 pg/g liver

Structure (SMILES): CCCCCCCCCCC(CCCCCCC(=O)OCC(CCCCCC)CCCCCCCC)N(CCCCCCCC(=O)OCC(CCCCCC)CCCCCCCC)C(=O)CCCN(C)C (stereo not drawn) [Compound 63]
Luc Activity ([2]; Table 12): 6.23E+07 pg/g liver

Structure (SMILES): CCCCCCCCCCC(CCCCCCC(=O)OCC(CCCCCC)CCCCCCCC)N(CCCCCCCC(=O)OCC(CCCCCC)CCCCCCCC)C(=O)CCCCN(C)C (stereo not drawn) [Compound 64]
Luc Activity ([2]; Table 12): 9.76E+07 pg/g liver

Structure (SMILES): CCCCCCCCCCC(CCCCCCC(=O)OC(CCCCCCCC)CCCCCCCC)N(CCCCCCCC(=O)OCCC(CCCCC)CCCCC)C(=O)CCCN(C)C (stereo not drawn) [Compound 68]
Luc Activity ([2]; Table 12): 4.36E+07 pg/g liver

Structure (SMILES): CCCCCCCCCCC(CCCCCCC(=O)OCC(CCCCCC)CCCCCCCC)N(CCCN(C)C)C(=O)CCCCCCC(=O)OCC(CCCC)CCCCCC (stereo not drawn) [Compound 78]
Luc Activity ([2]; Table 11): 5.30E+07 pg/g liver

Structure (SMILES): CCCCCCCCCCOC(=O)CCCCCCC(=O)N(CCCN(C)C)C(CCCCCCCCCC)CCCCCCC(=O)OCC(CCCCCC)CCCCCCCC (stereo not drawn) [Compound 79]
Luc Activity ([2]; Table 11): 1.05E+07 pg/g liver

Structure (SMILES): CCCCCCCCCCC(CCCCCCC(=O)OCC(CCCCCC)CCCCCCCC)N(CCCN(C)C)C(=O)CCCCCCCC(=O)OCC(CCCC)CCCCCC (stereo not drawn) [Compound 80]
Luc Activity ([2]; Table 12): 3.28E+07 pg/g liver

Structure (SMILES): CCCCCCCCCCC(CCCCCCC(=O)OCC(CCCCCC)CCCCCCCC)N(CCCN(C)C)C(=O)CCCCCCCCC(=O)OCC(CCCC)CCCCCC (stereo not drawn) [Compound 81]
Luc Activity ([2]; Table 12): 3.47E+07 pg/g liver

Structure (SMILES): CCCCCCCCCCC(CCCCCCC(=O)OCC(CCCCCC)CCCCCCCC)N(CCCN(C)C)C(=O)CCCCCCC(=O)OCCC(CCCCC)CCCCC (stereo not drawn) [Compound 82]
Luc Activity ([2]; Table 12): 1.23E+07 pg/g liver

Structure (SMILES): CCCCCCCCCCC(CCCCCCC(=O)OCC(CCCCCC)CCCCCCCC)N(CCCN(C)C)C(=O)CCCCCCC(=O)OCc1cc(CCCCCC)cc(CCCCCC)c1 (stereo not drawn) [Compound 83]
Luc Activity ([2]; Table 12): 4.59E+07 pg/g liver
